Measured values as given in article PMC4638363, “Linear Interaction Energy Based Prediction of Cytochrome P450 1A2 Binding Affinities with Reliability Estimation” (PLoS ONE, 2015).
Read-outs that look alike come from different tables or passages of the source.

Key:
recombinant CYP 1A2 [1] = test system: recombinant CYP 1A2
human CYP 1A2 = biological target: T1, human CYP 1A2 (Homo sapiens, UniProt P05177); conditions: for Residual (ΔGbind^Obs–ΔG bind ^Calc), error in prediction: test set
T1 sequence (P05177 1-516): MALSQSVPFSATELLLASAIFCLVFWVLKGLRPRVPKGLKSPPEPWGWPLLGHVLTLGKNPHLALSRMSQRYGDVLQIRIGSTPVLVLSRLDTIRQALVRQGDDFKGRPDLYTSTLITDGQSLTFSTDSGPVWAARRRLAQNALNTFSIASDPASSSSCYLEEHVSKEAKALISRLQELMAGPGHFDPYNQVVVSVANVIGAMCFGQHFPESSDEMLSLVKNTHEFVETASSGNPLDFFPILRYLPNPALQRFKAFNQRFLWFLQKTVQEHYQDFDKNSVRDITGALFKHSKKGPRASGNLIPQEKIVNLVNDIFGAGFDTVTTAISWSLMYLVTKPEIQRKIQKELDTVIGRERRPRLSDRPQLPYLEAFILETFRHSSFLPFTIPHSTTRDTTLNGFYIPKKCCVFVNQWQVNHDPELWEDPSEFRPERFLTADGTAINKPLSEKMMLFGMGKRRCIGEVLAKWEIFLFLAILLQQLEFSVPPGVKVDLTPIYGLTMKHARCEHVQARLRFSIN

recombinant CYP 1A2 [2] = conditions: cited from earlier work
recombinant CYP 1A2 [3] = conditions: from literature IC50, Source 3
[4] = Table A, Source 3, ref Korhonen et al., J. Med. Chem. 2005

Structure (SMILES)	ΔGbind^Obs (recombinant CYP 1A2 [1]; human) [kcal/mol]	IC50 (recombinant CYP 1A2 [2]; [4]) [µM]	IC50 (recombinant CYP 1A2 [2]) [µM]	further results
Cc1ccc2cccc(C)c2c1 [Compound 41, 1,7-Dimethylnaphthalene]	-7.46	7.5	–	Residual (ΔGbind^Obs–ΔG bind ^Calc), error in prediction (human CYP 1A2): -1.46 kcal/mol
Cc1ccc2cc(C)ccc2c1 [Compound 42, 2,6-Dimethylnaphthalene]	-6.29	–	52	Residual (ΔGbind^Obs—ΔGbind^Calc) (human CYP 1A2): -0.454 kcal/mol
Cc1ccc2ccc(C)cc2c1 [Compound 43, 2,7-Dimethylnaphthalene]	-6.17	65	–	Residual (ΔGbind^Obs–ΔG bind ^Calc), error in prediction (human CYP 1A2): 0 kcal/mol
Cc1ccc2ccccc2n1 [Compound 44, Quinaldine]	–	40	–	–
Cc1cnc2ccccc2c1 [Compound 45, 3-Methylquinoline]	–	13	–	–
Cc1cc(C)c2ccccc2n1 [Compound 46, 2-4-Dimethylquinoline]	–	–	2.4	–
Cc1cc2ccccc2cn1 [Compound 49, 3-Methylisoquinoline]	–	21	–	–
CC1CCC(=O)O1 (stereo not drawn) [Compound 51, γ-Valerolactone]	–	15000	–	ΔGbind^Obs (recombinant CYP 1A2 [1]): -2.92 kcal/mol; Residual (ΔGbind^Obs—ΔGbind^Calc) (human CYP 1A2): 0.86 kcal/mol
CCC1CCC(=O)O1 (stereo not drawn) [Compound 52, γ-Caprolactone]	-3.15	–	9900	Residual (ΔGbind^Obs—ΔGbind^Calc) (human CYP 1A2): 0.956 kcal/mol
O=C1Cc2ccccc2O1 [Compound 60, 2-Coumarone]	–	260	–	ΔGbind^Obs (recombinant CYP 1A2 [1]): -5.33 kcal/mol; Residual (ΔGbind^Obs—ΔGbind^Calc) (human CYP 1A2; training set): -0.263 kcal/mol
c1ccc2c(c1)CCO2 [Compound 62, 2,3-Dihydrobenzofuran]	–	1200	–	Residual (ΔGbind^Obs—ΔGbind^Calc) (human CYP 1A2; training set): -0.096 kcal/mol; ΔGbind^Obs (recombinant CYP 1A2 [3]; training set): -4.42 kcal/mol
c1ccc2c(c1)CCC2 [Compound 63, Indan]	-4.88	–	550	–
O=c1[nH]c2ccccc2o1 [Compound 64, 2-Benzoxazolinone]	-5.11	370	–	Residual (ΔGbind^Obs—ΔGbind^Calc) (human CYP 1A2; training set): 0.19 kcal/mol
c1ccc(-c2ccccc2)cc1 [Compound 65, Biphenyl]	-5.62	–	160	Residual (ΔGbind^Obs—ΔGbind^Calc) (human CYP 1A2): -0.12 kcal/mol
Clc1ccccc1-c1ccccc1 [Compound 66, 2-Chlorobiphenyl]	-5.4	230	–	Residual (ΔGbind^Obs–ΔG bind ^Calc), error in prediction (human CYP 1A2): 0.669 kcal/mol
Clc1ccc(-c2ccccc2)cc1 [Compound 67, 4-Chlorobiphenyl]	-6.33	49	–	Residual (ΔGbind^Obs—ΔGbind^Calc) (human CYP 1A2): 0.024 kcal/mol
CCCCC1CCCCC1 [Compound 68, Butylcyclohexane]	–	55	–	Residual (ΔGbind^Obs—ΔGbind^Calc) (human CYP 1A2; training set): 0.526 kcal/mol; ΔGbind^Obs (recombinant CYP 1A2 [3]; training set): -6.26 kcal/mol
CCCCc1ccccc1 [Compound 69, Butylbenzene]	-3.75	3700	–	Residual (ΔGbind^Obs–ΔG bind ^Calc), error in prediction (human CYP 1A2): 1.43 kcal/mol
O=C1CCC(c2ccccc2)O1 (stereo not drawn) [Compound 70, γ-Phenyl-γ-butyrolactone]	–	2300	–	ΔGbind^Obs (recombinant CYP 1A2 [1]): -4.04 kcal/mol; Residual (ΔGbind^Obs—ΔGbind^Calc) (human CYP 1A2; training set): 1.36 kcal/mol
COC1=CC(=O)OC1 [Compound 71, 4-Methoxyfuran-2-(5H)-one]	–	–	40000	Residual (ΔGbind^Obs–ΔG bind ^Calc), error in prediction (human CYP 1A2): 1.34 kcal/mol; ΔGbind^Obs (recombinant CYP 1A2 [3]; test set): -2.32 kcal/mol
Cc1cc(C)oc(=O)c1 [Compound 72, 4,6-Dimethyl-α-pyron]	–	–	4500	Residual (ΔGbind^Obs—ΔGbind^Calc) (human CYP 1A2): 1.05 kcal/mol; ΔGbind^Obs (recombinant CYP 1A2 [3]; training set): -3.63 kcal/mol
CN1C(=O)CC[C@H]1c1cccnc1 [Compound 73, Cotinine]	–	5400	–	Residual (ΔGbind^Obs—ΔGbind^Calc) (human CYP 1A2; training set): 1.84 kcal/mol; ΔGbind^Obs (recombinant CYP 1A2 [3]; training set): -3.51 kcal/mol
